Source: the supplement of paper PMC10307832

Assays:
Assay in all cases: relative viability (nuclei count vs DMSO), 5 days (fraction); higher = more cells survive
Afatinib + Trametinib = compound: CN(C)C/C=C/C(=O)Nc1cc2c(Nc3ccc(F)c(Cl)c3)ncnc2cc1O[C@H]1CCOC1 [Afatinib] + CC(=O)Nc1cccc(-n2c(=O)n(C3CC3)c(=O)c3c(Nc4ccc(I)cc4F)n(C)c(=O)c(C)c32)c1 [Trametinib] (partner 0.02 µM)
Outline: (§1)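 A single step with final 0.05% Triton X-100, 1% formaldehyde and 1 ug/ml Hoechst fixed the cells and stained nuclei 5 days after treatment. Lung cancer cell lines in 1536-well plates had been treated by pin tool the day after seeding with one drug alone or a fixed anchor-drug dose plus five library-drug doses (not always all listed) in √10 steps, and nuclei were counted on 4× images. Relative viability is the ratio of nuclei in treated wells to nuclei in vehicle wells, taken as the median of duplicate plates.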

Afatinib + Lapatinib = compound: CN(C)C/C=C/C(=O)Nc1cc2c(Nc3ccc(F)c(Cl)c3)ncnc2cc1O[C@H]1CCOC1 [Afatinib] + CS(=O)(=O)CCNCc1ccc(-c2ccc3ncnc(Nc4ccc(OCc5cccc(F)c5)c(Cl)c4)c3c2)o1 [Lapatinib] (partner 2 µM)
Outline: as §1

Afatinib + Phenformin = compound: CN(C)C/C=C/C(=O)Nc1cc2c(Nc3ccc(F)c(Cl)c3)ncnc2cc1O[C@H]1CCOC1 [Afatinib] + N=C(N)NC(=N)NCCc1ccccc1 [Phenformin] (partner 250 µM)
Outline: as §1

Afatinib + Olaparib = compound: CN(C)C/C=C/C(=O)Nc1cc2c(Nc3ccc(F)c(Cl)c3)ncnc2cc1O[C@H]1CCOC1 [Afatinib] + O=C(c1cc(Cc2n[nH]c(=O)c3ccccc23)ccc1F)N1CCN(C(=O)C2CC2)CC1 [Olaparib] (partner 8 µM)
Outline: as §1

| Cell Line | relative viability (Afatinib + Trametinib; first compound 0.005 µM) | relative viability (Afatinib + Trametinib; first compound 0.01581 µM) | relative viability (Afatinib + Trametinib; first compound 0.05 µM) | relative viability (Afatinib + Trametinib; first compound 0.1581 µM) | relative viability (Afatinib + Trametinib; first compound 0.5 µM) | relative viability (Afatinib + Lapatinib; first compound 0.005 µM) | relative viability (Afatinib + Lapatinib; first compound 0.01581 µM) | relative viability (Afatinib + Lapatinib; first compound 0.05 µM) | relative viability (Afatinib + Lapatinib; first compound 0.1581 µM) | relative viability (Afatinib + Lapatinib; first compound 0.5 µM) | relative viability (Afatinib + Phenformin; first compound 0.005 µM) | relative viability (Afatinib + Phenformin; first compound 0.01581 µM) | relative viability (Afatinib + Phenformin; first compound 0.05 µM) | relative viability (Afatinib + Phenformin; first compound 0.1581 µM) | relative viability (Afatinib + Phenformin; first compound 0.5 µM) | relative viability (Afatinib + Olaparib; first compound 0.005 µM) | relative viability (Afatinib + Olaparib; first compound 0.01581 µM) | relative viability (Afatinib + Olaparib; first compound 0.05 µM) | relative viability (Afatinib + Olaparib; first compound 0.1581 µM) | relative viability (Afatinib + Olaparib; first compound 0.5 µM) |
| --- | --- | --- | --- | --- | --- | --- | --- | --- | --- | --- | --- | --- | --- | --- | --- | --- | --- | --- | --- | --- |
| HCC-827 | 0.16 | 0.165 | 0.179 | 0.161 | 0.15 | 0.0458 | 0.174 | 0.186 | 0.186 | 0.198 | 0.137 | 0.119 | 0.152 | 0.119 | 0.137 | 0.135 | 0.0842 | 0.145 | 0.158 | 0.142 |
| HCC-78 | 0.788 | 0.677 | 0.723 | 0.559 | 0.698 | 0.838 | 0.661 | 0.844 | 0.659 | 0.883 | 0.892 | 0.515 | 0.593 | 0.648 | 0.559 | 0.792 | 0.932 | 0.852 | 0.717 | 0.667 |
| NCI-H2085 | 0.433 | 0.507 | 0.692 | 0.513 | 0.457 | 0.857 | 0.762 | 0.851 | 0.743 | 0.76 | 0.614 | 0.629 | 0.606 | 0.509 | 0.542 | 0.751 | 0.691 | 0.659 | 0.603 | 0.648 |
| PC-14 | 0.101 | 0.103 | 0.117 | 0.0763 | 0.0964 | 0.295 | 0.222 | 0.258 | 0.301 | 0.288 | 0.173 | 0.123 | 0.175 | 0.161 | 0.171 | 0.193 | 0.19 | 0.139 | 0.12 | 0.134 |
| NCI-H2342 | 0.761 | 0.723 | 0.726 | 0.74 | 0.672 | – | – | – | – | – | 0.641 | 0.488 | 0.575 | 0.519 | 0.477 | 0.375 | 0.457 | 0.411 | 0.347 | 0.406 |
| A-427 | 0.702 | 0.686 | 0.733 | 0.812 | 0.633 | 1.09 | 1.09 | 1.01 | 1.03 | 1.04 | 0.33 | 0.248 | 0.371 | 0.267 | 0.32 | 0.79 | 0.759 | 0.779 | 0.776 | 0.789 |
| H3255 | 0.297 | 0.208 | 0.288 | 0.195 | 0.237 | 0.244 | 0.227 | 0.242 | 0.215 | 0.215 | 0.228 | 0.23 | 0.203 | 0.202 | 0.228 | 0.332 | 0.273 | 0.277 | 0.277 | 0.236 |
| HCC-44 | 1.04 | 1.09 | 1.01 | 1.04 | 1.12 | 1.09 | 1.03 | 0.953 | 0.97 | 1.02 | 0.233 | 0.184 | 0.232 | 0.395 | 0.239 | 0.958 | 0.921 | 0.974 | 1 | 1.01 |
| NCI-H1734 | 0.684 | 0.671 | 0.715 | 0.683 | 0.692 | 1.06 | 1.01 | 1.06 | 1.01 | 1.09 | 0.419 | 0.383 | 0.412 | 0.351 | 0.405 | 0.666 | 0.569 | 0.621 | 0.58 | 0.551 |
| NCI-H2228 | 0.833 | 0.395 | 0.544 | 0.467 | 0.466 | 1.29 | 1.01 | 0.958 | – | 1.03 | 0.279 | 0.273 | 0.31 | 0.257 | 0.242 | 0.935 | 0.518 | 0.704 | 0.506 | 0.579 |
| ABC-1 | – | – | – | – | – | 1.15 | 1.16 | 1.32 | 0.932 | 1.05 | 0.245 | 0.241 | 0.264 | 0.239 | 0.325 | 0.779 | – | 1.04 | 1.04 | 0.561 |
| COR-L23 | 0.625 | 0.648 | 0.723 | 0.582 | 0.608 | 1.22 | 0.916 | 0.877 | 0.933 | 1.11 | 0.479 | 0.446 | 0.449 | 0.437 | 0.45 | 0.325 | 0.325 | 0.358 | 0.369 | 0.366 |
| ChaGo-K-1 | 0.922 | 0.911 | 0.885 | 0.866 | 0.813 | – | – | – | – | – | 0.474 | 0.466 | 0.444 | 0.45 | 0.431 | 0.466 | 0.439 | 0.447 | 0.396 | 0.397 |
| EBC-1 | – | – | – | – | – | 0.246 | 0.196 | 0.198 | 0.195 | 0.212 | – | – | – | – | – | 0.714 | 0.76 | 0.745 | 0.676 | 0.734 |
| NCI-H441 | 0.536 | 0.347 | 0.396 | 0.325 | 0.384 | – | – | – | – | – | 0.92 | 0.748 | 0.916 | 0.736 | 0.797 | 0.491 | 0.521 | 0.649 | 0.441 | 0.512 |
| A549 | – | – | – | – | – | 0.974 | 0.979 | 1.01 | 0.893 | 0.997 | 0.152 | 0.154 | 0.192 | 0.162 | 0.15 | 0.321 | 0.451 | 0.359 | 0.304 | 0.375 |
| NCI-H1703 | – | – | – | – | – | 1.76 | 1.02 | 1.08 | 0.921 | 0.753 | – | – | – | – | – | 0.538 | – | 0.411 | 0.297 | 0.445 |
| LCLC-103H | 0.602 | 0.698 | 0.736 | 0.634 | 0.697 | – | – | – | – | – | 0.319 | 0.358 | 0.326 | 0.37 | 0.353 | 0.743 | 0.744 | 0.764 | 0.682 | 0.773 |
| NCI-H1563 | – | – | – | – | – | 0.965 | 0.874 | 1.08 | 1.04 | 0.854 | 0.625 | 0.667 | 0.649 | 0.651 | 0.623 | – | – | – | – | – |
